{
  "source": "patent US20260272915A1",
  "about": "“PHARMACEUTICAL COMPOSITION FOR TREATING, PREVENTING, OR MANAGING BILIRUBIN-INDUCED NEUROLOGICAL DYSFUNCTION, PSYCHIATRIC DISORDERS ASSOCIATED WITH JAUNDICE, OR PSYCHIATRIC DISORDERS CAUSED BY BILIRUBIN UDP-GLUCURONOSYLTRANSFERASE GENE MUTATIONS” (priority 2023, published 2026)",
  "format_in_all_cases": "in vivo, rat",
  "key": {"[1]": {"tested_on": "jaundice model rats (Gunn rats)", "assay": "Open field test", "details": "for Effect on number of grooming behaviors of Gunn rats (in words) / Effect on number of rearing behaviors of Gunn rats (in words) / Effect on spontaneous activity amount of Gunn rats (in words): compared with normal (Wistar) rats; for Spontaneous Activity Amount, Average / Number of Rearing Behaviors, Average / Number of Grooming Behaviors, Average: Gunn rats (j/j)", "description": "Eltoprazine (E1357, TCI), which is one of the 5-HT1A/1B receptor agonists, was dissolved in an arbitrary solvent. 0.3 mg/kg of eltoprazine was subcutaneously administered to jaundice model rats (Gunn rats) at 9 to 10 weeks of age. Further, as control groups, only a solvent was subcutaneously administered to Gunn rats and Wistar rats at 9 to 10 weeks of age. Further, as a comparison group, 8OH-DPAT (O415005, FUJIFILM Wako Pure Chemical Corporation), which is one of 5-HT1A receptor agonists, was dissolved in an arbitrary solvent, and 1 mg/kg thereof was subcutaneously administered to Gunn rats. After placing each rat in its home cage for 60 minutes, an open field test was conducted for 60 minutes using the Scanet MV-40 (Melquest Ltd.). The spontaneous activity amount and the number of rearing behaviors were measured for each rat by counting how many times the rat crossed the center evenly spaced. The number of grooming behaviors was counted by visual inspection.\nEltoprazine (E1357, TCI), which is one of the 5-HT1A/1B receptor agonists, was dissolved in an arbitrary solvent. 0.3 mg/kg of eltoprazine was subcutaneously administered to jaundice model rats (Gunn rats) at 9 to 10 weeks of age. Further, as control groups, only a solvent was subcutaneously administered to Gunn rats and Wistar rats at 9 to 10 weeks of age. Further, as a comparison group, CGS12066A (Sigma-Aldrich Co. LLC), which is one of 5-HT1B receptor agonists, was dissolved in an arbitrary solvent, and 1 mg/kg thereof was subcutaneously administered to Gunn rats. After placing each rat in its home cage for 60 minutes, an open field test was conducted for 60 minutes using the Scanet MV-40 (Melquest Ltd.). The spontaneous activity amount and the number of rearing behaviors for each rat were measured by counting how many times the rat crossed the center evenly spaced. The number of grooming behaviors was counted by visual inspection."}, "Gunn rats [2]": {"tested_on": "Gunn rats", "assay": "Startle response prepulse inhibition (PPI) test", "details": "0.3 mg/kg subcutaneous, 80 dB prepulse", "description": "Eltoprazine (E1357, TCI), which is one of 5-HT1A/1B receptor agonists, was dissolved in a physiological saline solution. Only a solvent, 0.3 mg/kg of eltoprazine, or 1 mg/kg of eltoprazine was administered subcutaneously to Gunn rats at 9 to 10 weeks of age. For control, only a solvent was administered to Wistar rats as normal rats. One hour after the administration, a startle response prepulse inhibition (PPI) test was performed. The PPI test was conducted using the SR-LAB-Startle Response System (San Diego Institute, USA). Each rat subjected to the measurement was placed in a measurement chamber and acclimated with a 65 dB background white noise for 5 minutes before the start of stimulation. The startle response to a 120 dB auditory stimulation was measured using a piezoelectric sensor attached to the bottom of the chamber. The test session consisted of a total of 50 randomized trials, including no-stimulus (white noise only), 20 ms of 120 dB pulse stimulation, and stimulation with 20 ms of 70 dB or 80 dB prepulse 100 ms before the 120 dB pulse. The interval between the trials was 20 to 60 seconds (average: 40 seconds). The percentage PPI was calculated using the following formula: 100−[(startle response to prepulse-pulse stimulation trial−no-stimulation trial)/(pulse-alone trial−no-stimulation trial)×100]."}, "Gunn rats [3]": {"tested_on": "Gunn rats", "assay": "Social interaction test", "details": "for Attacking Behavior, Average / Following Behavior, Average / Sniffing Behavior/Grooming Behavior, Average: Gunn rats (j/j), 1 h after administration, 10 min recording; for Sniffing Behavior/Grooming Behavior, Average: duration of sniffing or grooming the partner", "description": "Eltoprazine (E1357, TCI), which is one of 5-HT1A/1B receptor agonists, was dissolved in a physiological saline solution. Only a solvent, 0.3 mg/kg of eltoprazine, or 1 mg/kg of eltoprazine was administered subcutaneously to Gunn rats at 9 to 10 weeks of age. For control, only a solvent was administered to Wistar rats as normal rats. One hour after the administration, two rats of the same type (same drug, same dose, same genetic type) were placed together in a single cage, and their behaviors were video-recorded from above for 10 minutes. The recorded video was visually analyzed, and the number of behaviors of following the partner, the attacking behavior, and the duration of sniffing or grooming the partner were measured."}, "[4]": {"details": "0.3 mg/kg or 1 mg/kg subcutaneous, compared with normal rats"}},
  "data": [
    {"smiles": "CN1CCN(c2nc3cc(C(F)(F)F)ccc3n3cccc23)CC1", "note": "[CGS12066A]", "values": [
      {"measurement": "Effect on number of grooming behaviors of Gunn rats (in words)", "setting": "[1]; 1 mg/kg subcutaneous", "value": "did not improve"},
      {"measurement": "Effect on number of rearing behaviors of Gunn rats (in words)", "setting": "[1]; 1 mg/kg subcutaneous", "value": "levels comparable to those of normal rats"},
      {"measurement": "Effect on spontaneous activity amount of Gunn rats (in words)", "setting": "[1]; 1 mg/kg subcutaneous", "value": "levels comparable to those of normal rats"},
      {"measurement": "Spontaneous Activity Amount, Average", "setting": "[1]; Table 5, 1 mg/kg subcutaneous, 60 min open field", "value": 4030, "unit": "count"},
      {"measurement": "Number of Rearing Behaviors, Average", "setting": "[1]; Table 6, 1 mg/kg subcutaneous, 60 min open field", "value": 47, "unit": "count"},
      {"measurement": "Number of Grooming Behaviors, Average", "setting": "[1]; Table 7, 1 mg/kg subcutaneous, 60 min open field", "value": 19.6, "unit": "count"}
    ]},
    {"smiles": "c1cc2c(c(N3CCNCC3)c1)OCCO2", "note": "[eltoprazine, 5-(piperazin-1-yl)-2,3-dihydro-1,4-benzodioxine]", "values": [
      {"measurement": "Effect on number of grooming behaviors of Gunn rats (in words)", "setting": "[1]; 0.3 mg/kg subcutaneous", "value": "levels comparable to those of normal rats"},
      {"measurement": "Effect on number of rearing behaviors of Gunn rats (in words)", "setting": "[1]; 0.3 mg/kg subcutaneous", "value": "levels comparable to those of normal rats"},
      {"measurement": "Effect on spontaneous activity amount of Gunn rats (in words)", "setting": "[1]; 0.3 mg/kg subcutaneous", "value": "levels comparable to those of normal rats"},
      {"measurement": "Spontaneous Activity Amount, Average", "setting": "[1]; Table 2, 0.3 mg/kg subcutaneous, 60 min home cage then 60 min open field", "value": 4640, "unit": "count"},
      {"measurement": "Number of Rearing Behaviors, Average", "setting": "[1]; Table 3, 0.3 mg/kg subcutaneous, 60 min open field", "value": 61.5, "unit": "times"},
      {"measurement": "Number of Grooming Behaviors, Average", "setting": "[1]; Table 4, 0.3 mg/kg subcutaneous, 60 min open field, visual inspection", "value": 8.5, "unit": "count"},
      {"measurement": "Spontaneous Activity Amount, Average", "setting": "[1]; Table 5, 0.3 mg/kg subcutaneous, 60 min open field", "value": 4640, "unit": "count"},
      {"measurement": "Number of Rearing Behaviors, Average", "setting": "[1]; Table 6, 0.3 mg/kg subcutaneous, 60 min open field", "value": 61.5, "unit": "count"},
      {"measurement": "Number of Grooming Behaviors, Average", "setting": "[1]; Table 7, 0.3 mg/kg subcutaneous, 60 min open field", "value": 8.5, "unit": "count"},
      {"measurement": "Effect on percentage PPI of Gunn rats (in words)", "setting": "Gunn rats [2]", "value": "tendency to improve"},
      {"measurement": "Percentage PPI, Average", "setting": "Gunn rats [2]; 120 dB pulse, Gunn rats (j/j), 1 h after administration", "value": 63.6, "unit": "%"},
      {"measurement": "Effect on attacking behavior of Gunn rats (in words)", "setting": "Gunn rats [3]; [4]", "value": "levels comparable to those of normal rats"},
      {"measurement": "Effect on duration of sniffing or grooming the partner in Gunn rats (in words)", "setting": "Gunn rats [3]; [4]", "value": "normal level"},
      {"measurement": "Effect on following behavior of Gunn rats (in words)", "setting": "Gunn rats [3]; [4]", "value": "levels comparable to those of normal rats"},
      {"measurement": "Attacking Behavior, Average", "setting": "Gunn rats [3]; 0.3 mg/kg subcutaneous", "value": 2, "unit": "count"},
      {"measurement": "Following Behavior, Average", "setting": "Gunn rats [3]; 0.3 mg/kg subcutaneous", "value": 2.16, "unit": "count"},
      {"measurement": "Attacking Behavior, Average", "setting": "Gunn rats [3]; 1 mg/kg subcutaneous", "value": 0.16, "unit": "count"},
      {"measurement": "Following Behavior, Average", "setting": "Gunn rats [3]; 1 mg/kg subcutaneous", "value": 3.83, "unit": "count"},
      {"measurement": "Sniffing Behavior/Grooming Behavior, Average", "setting": "Gunn rats [3]; 0.3 mg/kg subcutaneous", "value": 52, "unit": "count"},
      {"measurement": "Sniffing Behavior/Grooming Behavior, Average", "setting": "Gunn rats [3]; 1 mg/kg subcutaneous", "value": 41.5, "unit": "count"}
    ]},
    {"smiles": "CCCN(CCC)C1CCc2cccc(O)c2C1", "note": "(centres unmarked) [8OH-DPAT]", "values": [
      {"measurement": "Effect on number of grooming behaviors of Gunn rats (in words)", "setting": "[1]; 1 mg/kg subcutaneous", "value": "levels comparable to those of normal rats"},
      {"measurement": "Effect on number of rearing behaviors of Gunn rats (in words)", "setting": "[1]; 1 mg/kg subcutaneous", "value": "abnormal number of rearing behaviors"},
      {"measurement": "Effect on spontaneous activity amount of Gunn rats (in words)", "setting": "[1]; 1 mg/kg subcutaneous", "value": "levels comparable to those of normal rats"},
      {"measurement": "Spontaneous Activity Amount, Average", "setting": "[1]; Table 2, 1 mg/kg subcutaneous, 60 min home cage then 60 min open field", "value": 2681, "unit": "count"},
      {"measurement": "Number of Rearing Behaviors, Average", "setting": "[1]; Table 3, 1 mg/kg subcutaneous, 60 min open field", "value": 0.3, "unit": "times"},
      {"measurement": "Number of Grooming Behaviors, Average", "setting": "[1]; Table 4, 1 mg/kg subcutaneous, 60 min open field, visual inspection", "value": 5.5, "unit": "count"}
    ]}
  ]
}
